The values below come from publication PMC11123931, “The Synergistic Effect of N2 and N7 Modifications on the Inhibitory Efficacy of mRNA Cap Analogues” (Pharmaceuticals, 2024).

Where two headings read alike, the source gives them in different places.

Data set [1] deals with cap-dependent translation. The settings on record: 1% DMSO solution; cited from earlier work.
Data set [2] deals with cap-dependent translation in rabbit reticulocyte lysate (RRL). Nature of the data set: Inhibition of cap-dependent translation of ARCA-capped luciferase mRNA in rabbit reticulocyte lysate (RRL). The class given is biochemical. The settings on record: for IC50: ARCA-capped luciferase mRNA, 1% DMSO final concentration, read-out: IC50^DMSO ± SE; for Inhibition Relative to m^7GMP IC50^DMSO (m^7GMP)/ IC50^DMSO (Cap Analogue) / Inhibition Relative to m^7GpppG IC50^DMSO (m^7GpppG)/ IC50^DMSO (Cap Analogue): 1% DMSO. How it is done: To estimate the ability of the newly synthesized double-modified nucleotides to inhibit cap-dependent translation, the […] translation system from rabbit reticulocytes lysate (RRL) was used according to previously described procedures. This procedure was implemented because it mimics the competition between the cap analogue and the mRNA in the all-natural system. Briefly, experiments were performed in a micrococcal nuclease-treated RRL using an in vitro-transcribed, ARCA-capped, β-globin 5′ UTR containing mRNA encoding firefly luciferase to allow for the determination of protein synthesis by luminometry. […] Initially, the compounds were prepared in an aqueous solution containing 10% DMSO, and inhibition was measured at a final concentration of 1% DMSO. Incubations were conducted at several series of inhibitor concentrations in three independent measurement series (Figure 4).
Stock solutions were subsequently used for serial dilutions (in 10% DMSO). […] Experiments of the inhibition of the cap-dependent translation in rabbit reticulocyte lysate (Flexi RRL System, Promega) were performed as previously described. […] Next, 1.25 μL of the tested compound (as a solution in 10% DMSO) and m2^7,3′OGpppG-capped luciferase mRNA (to a final concentration of 5 ng/μL) was added to the reaction, and the translation mixture (12.5 μL final volume) was incubated for an additional 60 min. As a reference, reactions with DMSO (1.25 μL of 10% solution) were prepared. The reactions were stopped by chilling on ice, and the luciferase activity was determined in a Glomax luminometer (Promega). The IC50 values were obtained by fitting to the experimental data a theoretical curve that describes the extent of inhibition as a function of competitive inhibitor (e.g., cap analogue) concentration.

Data set [3] has as its system cap-dependent translation in rabbit reticulocyte lysate (RRL). The settings on record: cited from earlier work; for IC50: RRL, water solutions without DMSO, previously determined, read-out: IC50^WATER ± SE; for times more potent inhibition than the standard dinucleotide m^7GpppG: pure water without DMSO.
A further data set concerns the target T1, human eIF4E (heIF4E) (Homo sapiens, UniProt P06730).
T1 construct: The thermal stability of human full-length eIF4E (heIF4E) was analyzed; made in house
Nature of the data set: Thermal stabilization of heIF4E by differential scanning fluorimetry (DSF). It counts as binding. The settings on record: 1% DMSO; for Relative Change in Affinity to m^7GMP: DSF appK ratio; for Kd: from ΔTm versus ligand concentration, single site ligand binding model, read-out: appK ± SE (apparent affinity to heIF4E). As for the experimental part: The thermal stability of human full-length eIF4E (heIF4E) was analyzed using differential scanning fluorimetry (DSF), similar to that described previously for murine eIF4E [30]. heIF4E was expressed and purified as described earlier. The assay sample (20 μL) contained 5× SYPRO Orange (Sigma Aldrich, St. Louis, MO, USA) and 4 μM of heIF4E (final concentration) in HEPES/KOH with 100 mM KCl, 0.5 mM EDTA, and 1 mM DTT (pH 7.2). The tested compounds, as 10× stocks in 10% DMSO, were added to the final concentration at a range from 1 μM to 200 μM. DMSO at a 1% final concentration was then added to the control reactions without any compounds. […] The melting temperature (Tm) was determined as the minimum of the first negative derivative with the built-in CFX Manager Software (Bio-Rad).

Another data set in a line: Solubility in water. It counts as physicochemical.
Where [4] appears, read: listed as (4-(diOCH3-bn)-tz-CH2)2bn^7GpppG (4).

T1 sequence (P06730 whole entry): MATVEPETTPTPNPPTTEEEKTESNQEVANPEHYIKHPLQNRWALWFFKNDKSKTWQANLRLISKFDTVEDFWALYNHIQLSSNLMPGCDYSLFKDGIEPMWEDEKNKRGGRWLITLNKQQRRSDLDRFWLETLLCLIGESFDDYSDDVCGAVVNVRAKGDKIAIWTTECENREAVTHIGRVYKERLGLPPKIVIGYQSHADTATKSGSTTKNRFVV

For the compound `Nc1nc2c(c(=O)[nH]1)[n+](Cc1ccccc1)cn2[C@@H]1O[C@H](COP(=O)([O-])O)[C@@H](O)[C@H]1O` [compound 1, 7-benzylguanosine monophosphate], the “inhibitory properties compared to m^7GMP (times better)” value in data set [1] was 1.5.
As usually defined, the IC50 is the concentration that gives 50% inhibition. For `Cn1c[n+]([C@@H]2O[C@H](COP(=O)([O-])OP(=O)(O)OP(=O)(O)O)[C@@H](O)[C@H]2O)c2nc(N)[nH]c(=O)c21` [m^7GTP], the IC50 in data set [2] was 1090 ± 140 nM; in data set [3] it was 2300 ± 200 nM.
With `COc1cccc(OC)c1OCCCn1cc(CNc2nc3c(c(=O)[nH]2)[n+](Cc2ccccc2)cn3[C@@H]2O[C@H](COP(=O)(O)OP(=O)([O-])OP(=O)(O)OC[C@H]3O[C@@H](n4cnc5c(=O)[nH]c(N)nc54)[C@H](O)[C@@H]3O)[C@@H](O)[C@H]2O)nn1` [compound 4], in data set [2], the “Inhibition Relative to m^7GMP IC50^DMSO (m^7GMP)/ IC50^DMSO (Cap Analogue)” value worked out at 80.08, the “Inhibition Relative to m^7GpppG IC50^DMSO (m^7GpppG)/ IC50^DMSO (Cap Analogue)” value was approximately 18 and the IC50 is 240 ± 20 nM. Moreover, in data set [2] (setting [4]), the “Inhibition Relative to m^7GpppG IC50^DMSO (m^7GpppG)/ IC50^DMSO (Cap Analogue)” value turned out to be 18.54. Also, the “Relative Change in Affinity to m^7GMP” value at human eIF4E (heIF4E) (setting [4]) was determined as 6.8. For the same compound, the “ΔTm of heIF4E” value at human eIF4E (heIF4E) (DSF, below a 10 μM final concentration) was ~ 10 °C. Besides, the Kd on human eIF4E (heIF4E) (DSF) was 3.58 ± 1.09 µM.
Regarding `Cn1c[n+]([C@@H]2O[C@H](COP(=O)(O)O)[C@@H](O)[C@H]2O)c2nc(N)[nH]c(=O)c21` [m^7GMP], the IC50 in data set [2] was 19200 ± 3310 nM; in data set [3], more than 50000 nM.
On to `Nc1nc2c(ncn2[C@@H]2O[C@H](COP(=O)(O)OP(=O)(O)OP(=O)(O)OC[C@H]3O[C@@H](n4c[n+](Cc5ccccc5)c5c(=O)[nH]c(N)nc54)[C@H](O)[C@@H]3O)[C@@H](O)[C@H]2O)c(=O)[nH]1` [bn^7GpppG], for which the “times more potent inhibition than the standard dinucleotide m^7GpppG” value in data set [3] is listed as “approximately 1.5”.
For the compound `COc1cccc(OC)c1OCCCn1cc(CNc2nc3c(c(=O)[nH]2)[n+](C)cn3[C@@H]2O[C@H](COP(=O)([O-])O)[C@@H](O)[C@H]2O)nn1` [compound 2, (4-(diOCH3-bn)-tz-CH2)2m^7GMP], in data set [2], the “Inhibition Relative to m^7GMP IC50^DMSO (m^7GMP)/ IC50^DMSO (Cap Analogue)” value turned out to be 10.67, the “Inhibition Relative to m^7GpppG IC50^DMSO (m^7GpppG)/ IC50^DMSO (Cap Analogue)” value is 2.47 and the IC50 turned out to be 1800 ± 210 nM. In addition, the “Relative Change in Affinity to m^7GMP” value at human eIF4E (heIF4E) was found to be 1.8. In addition, the Kd at human eIF4E (heIF4E) (DSF) was 13.3 ± 3.45 µM. For the same compound, in data set [3], the IC50 is 2000 ± 100 nM.
(4-(diOCH3-bn)-tz-CH2)^2m^7GpppG: the “times more potent inhibition than the standard dinucleotide m^7GpppG” value in data set [3] is approximately 6.9.
`Cn1c[n+]([C@@H]2O[C@H](COP(=O)(O)OP(=O)([O-])OP(=O)(O)OC[C@H]3O[C@@H](n4cnc5c(=O)[nH]c(N)nc54)[C@H](O)[C@@H]3O)[C@@H](O)[C@H]2O)c2nc(N)[nH]c(=O)c21` [m^7GpppG]: the IC50 is 4450 ± 610 nM in data set [2] and 8600 ± 700 nM in data set [3].
On to `COc1cccc(OC)c1OCCCn1cc(CNc2nc3c(c(=O)[nH]2)[n+](Cc2ccccc2)cn3[C@@H]2O[C@H](COP(=O)([O-])O)[C@@H](O)[C@H]2O)nn1` [compound 3], for which, in data set [2], the “Inhibition Relative to m^7GMP IC50^DMSO (m^7GMP)/ IC50^DMSO (Cap Analogue)” value is 7.11, the “Inhibition Relative to m^7GpppG IC50^DMSO (m^7GpppG)/ IC50^DMSO (Cap Analogue)” value was 1.64 and the IC50 was determined as 2700 ± 300 nM. In addition, at human eIF4E (heIF4E), the “Relative Change in Affinity to m^7GMP” value came to 1.7. At human eIF4E (heIF4E) (DSF), the Kd was determined as 14.7 ± 1.14 µM. Besides, the solubility in water entry in the data set “Solubility in water” was “only partially soluble in water”.
